Reference: patent publication US20240180883A1, “TREATMENT OF MIGRAINE” (Allergan Pharmaceuticals International Limited, priority 2020, published 2024)
Where “and” joins values, the source holds several entries; their conditions need not be identical. Equal entries are not always repeated. Where two headings read alike, the source gives them in different places.

How the values were obtained:
plasma protein = assay: Plasma protein binding by equilibrium dialysis (hepatic impairment study); type: in vitro ADME, human
Method: Sampling was also done at the following times for plasma protein binding determinations: Day 1 at 0 hour (predose) and 2 hours post dose.
Protein binding blood samples were collected from all participants starting on Day 1 at 0 hour (predose) and at 2 hours post-dose. The pre-dose samples collected prior to dosing for each participants were spiked with known quantities of ubrogepant.

CYP3A4 = target: T1, CYP3A4 (Homo sapiens, UniProt P08684); assay: Expected interaction with weak or moderate CYP3A4 inducers
T1 construct: mainly eliminated by CYP3A4 metabolism; from tissue; host or cells: in vivo, the patient's own enzyme (the gut wall is mentioned)
T1 sequence (P08684 whole entry): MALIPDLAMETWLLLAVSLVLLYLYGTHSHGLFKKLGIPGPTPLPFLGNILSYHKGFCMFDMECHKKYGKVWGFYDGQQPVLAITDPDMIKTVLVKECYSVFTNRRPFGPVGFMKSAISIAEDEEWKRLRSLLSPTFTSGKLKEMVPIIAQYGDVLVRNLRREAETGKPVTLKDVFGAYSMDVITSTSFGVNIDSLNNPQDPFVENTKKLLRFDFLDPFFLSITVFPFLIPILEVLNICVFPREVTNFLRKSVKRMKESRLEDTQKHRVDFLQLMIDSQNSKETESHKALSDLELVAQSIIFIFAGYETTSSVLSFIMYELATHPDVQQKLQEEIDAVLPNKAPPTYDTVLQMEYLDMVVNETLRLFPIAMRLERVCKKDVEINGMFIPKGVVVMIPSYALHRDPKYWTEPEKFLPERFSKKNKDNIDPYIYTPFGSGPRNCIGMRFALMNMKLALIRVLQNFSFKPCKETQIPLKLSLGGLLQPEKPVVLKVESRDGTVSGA

[1] = Study A: drug interaction PK with verapamil or ketoconazole; type: in vivo, human; conditions: for AUC(0-inf) / half-life / Cmax / Tmax: human, plasma, oral
Description: Study A (verapamil and ketoconazole) comprised 3 treatment periods.
Healthy adults aged 19-50 years for Study A and 18-45 years for Study B were eligible to participate. […] For study B, participants had to have a BMI between 18.0 and 30 kg/m^2. Exclusion criteria for both studies included hypersensitivity to any study drug; exposure to hepatitis B virus, hepatitis C virus, or HIV; or use of any drug or substance known to affect CYP enzymes or P-gp.

[2] = Phase 1 food effect study, 100 mg tablet fed vs fasted; type: in vivo, human; conditions: for AUC(0-inf) / AUC(0-t) / Cmax / Tmax / Vd/F / half-life: both sexes, human, plasma, oral, 100 mg; for Vd/F: read-out: Vz/F, arithmetic mean (CV %); for half-life: read-out: t1/2, mean (CV %) (converted)
Method: The treatments were administered in 1 of 2 sequences in periods 1 and 2 with a washout period of at least 7 days between each treatment.
Eighteen healthy participants with a mean age of 28.4 years (range: 20 to 39 years) were enrolled. The majority of participants were male (14 of 18, 77.8%). […] Mean (SD) weight was 75.99 ([…]) kg and mean (SD) BMI was 25.03 (3.290) kg/m2. Participants were randomly assigned one of two treatments in 1 of 2 sequences in Periods 1 and 2, with a washout period of at least 7 days between each study treatment.
For fed participants, the standardized high-fat (approximately 50% of total caloric content of the meal) and high-calorie (total of approximately 800 to 1000 calories) breakfast derived approximately 150 calories from protein, 250 calories from carbohydrates, and 500 to 600 calories from fat. An example of a high-fat breakfast meal would be 2 eggs fried in butter, 2 strips of bacon, 2 slices of toast with butter, 4 ounces of hash brown potatoes, and 8 ounces of whole milk. […] Participants who were randomly assigned to receive ubrogepant under fed conditions were required to consume the high-fat, high-calorie breakfast in full. For all participants, no food was allowed for 4 hours following study treatment administration. Water was allowed as desired except for 1 hour before and 1 hour after study treatment administration.

P-gp = P-gp (Homo sapiens, UniProt P08183); assay: P-gp transporter substrate in vitro; type: in vitro ADME
P-gp, sequence (P08183 whole entry): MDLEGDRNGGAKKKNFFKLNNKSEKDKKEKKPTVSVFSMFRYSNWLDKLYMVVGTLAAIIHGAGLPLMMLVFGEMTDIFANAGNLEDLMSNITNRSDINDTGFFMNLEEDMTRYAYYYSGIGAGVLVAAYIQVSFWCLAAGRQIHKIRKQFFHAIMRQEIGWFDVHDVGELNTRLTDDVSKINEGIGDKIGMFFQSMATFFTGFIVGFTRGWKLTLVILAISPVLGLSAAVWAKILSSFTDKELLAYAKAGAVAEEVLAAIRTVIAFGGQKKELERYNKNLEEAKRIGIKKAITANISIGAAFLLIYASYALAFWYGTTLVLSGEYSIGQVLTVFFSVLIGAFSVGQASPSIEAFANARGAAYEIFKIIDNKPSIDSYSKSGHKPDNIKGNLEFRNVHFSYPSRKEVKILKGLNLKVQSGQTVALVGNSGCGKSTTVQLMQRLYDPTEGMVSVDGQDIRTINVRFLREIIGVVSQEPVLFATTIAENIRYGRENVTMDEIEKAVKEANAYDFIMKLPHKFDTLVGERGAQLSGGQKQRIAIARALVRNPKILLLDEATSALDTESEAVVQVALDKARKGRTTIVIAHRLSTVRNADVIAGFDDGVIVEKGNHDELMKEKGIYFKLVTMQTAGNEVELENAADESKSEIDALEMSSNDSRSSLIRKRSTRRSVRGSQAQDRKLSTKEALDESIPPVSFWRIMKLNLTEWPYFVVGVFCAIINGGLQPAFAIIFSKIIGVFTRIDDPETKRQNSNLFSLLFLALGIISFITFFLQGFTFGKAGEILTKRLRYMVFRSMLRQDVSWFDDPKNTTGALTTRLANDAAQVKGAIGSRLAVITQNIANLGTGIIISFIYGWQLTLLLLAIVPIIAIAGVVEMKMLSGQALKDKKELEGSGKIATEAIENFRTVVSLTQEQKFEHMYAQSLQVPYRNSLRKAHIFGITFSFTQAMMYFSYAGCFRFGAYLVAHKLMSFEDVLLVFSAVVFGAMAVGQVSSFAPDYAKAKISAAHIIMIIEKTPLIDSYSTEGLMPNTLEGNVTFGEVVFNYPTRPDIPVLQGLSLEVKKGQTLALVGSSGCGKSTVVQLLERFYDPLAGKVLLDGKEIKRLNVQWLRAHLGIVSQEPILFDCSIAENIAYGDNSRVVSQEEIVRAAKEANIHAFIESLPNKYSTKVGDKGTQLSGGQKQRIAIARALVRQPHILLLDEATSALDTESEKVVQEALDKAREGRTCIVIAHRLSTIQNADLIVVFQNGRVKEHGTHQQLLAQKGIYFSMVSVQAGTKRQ

adults with migraine = assay: Consistency of treatment, ACHIEVE trials and long-term extension trial; type: in vivo, human
Method: Therapeutic gain (TG) was calculated for the ACHIEVE trial and separately for the first 3 attacks of moderate/severe pain intensity treated in the long term extension trial, using placebo data from ACHIEVE. The TG ratio (TGR) was the TG from the LTE divided by the TG in the ACHIEVE trial multiplied by 100. Following consultation with regulatory agencies, a consistency threshold for the TGR of 50% or greater was used for this analysis.

With `C[C@@H]1[C@H](c2ccccc2)C[C@H](NC(=O)c2cnc3c(c2)C[C@@]2(C3)C(=O)Nc3ncccc32)C(=O)N1CC(F)(F)F` [ubrogepant, (3′S)-N-((3S,5S,6R)-6-methyl-2-oxo-5-phenyl-1-(2,2,2-trifluoroethyl)piperidin-3-yl)-2′-oxo-1′,2′,5,7-etrahydrospiro[cyclopenta[b]pyridine-6,3′-pyrrolo[2,3-b]pyridine]-3-carboxamide] the “percentage of protein-bound ubrogepant” value (plasma protein; 0 hr (predose sample spiked with ubrogepant), mild-impaired) was 88.87 ± 1.12%, the “percentage of protein-bound ubrogepant” value (plasma protein; 0 hr (predose sample spiked with ubrogepant), moderate-impaired) was 87.42 ± 1.89% and the “percentage of protein-bound ubrogepant” value (plasma protein; 0 hr (predose sample spiked with ubrogepant), normal hepatic function) was 88.52 ± 0.84%. The “percentage of protein-bound ubrogepant” value (plasma protein; 0 hr (predose sample spiked with ubrogepant), severe-impaired) was 84.58 ± 0.91%, the “percentage of protein-bound ubrogepant” value (plasma protein; 2 hr post-dose, 100 mg, mild-impaired) was 89.9% and 89.85 ± 1.33% and the “percentage of protein-bound ubrogepant” value (plasma protein; 2 hr post-dose, 100 mg, moderate-impaired) was 88.2% and 88.24 ± 1.02%. The “percentage of protein-bound ubrogepant” value (plasma protein; 2 hr post-dose, 100 mg, normal hepatic function) was 89.3% and 89.28 ± 1.54%, the “percentage of protein-bound ubrogepant” value (plasma protein; 2 hr post-dose, 100 mg, severe-impaired) was 85.3% and 85.27 ± 0.94% and the “reduction of ubrogepant exposure” value (CYP3A4; moderate CYP3A4 inducers) was 50-80%. The “reduction of ubrogepant exposure” value (CYP3A4; weak CYP3A4 inducers) was 20-50%, the “increase in ubrogepant Cmax” value ([1]; coadministered with verapamil 240 mg vs alone) was about 2.8 fold and the AUC(0-inf) ([1]; 20 mg, ubrogepant 20 mg alone (Table 9), read-out: AUC0-∞, AM) was 213 ng·h/mL. The AUC(0-inf) ([1]; 20 mg, ubrogepant 20 mg alone, read-out: AUC0-∞, mean (SD)) was 213 ng·h/mL, the half-life ([1]; 20 mg, ubrogepant 20 mg alone, read-out: Apparent terminal t1/2, mean (SD) (converted)) was 150 min and the Cmax ([1]; 20 mg, ubrogepant 20 mg alone, read-out: Cmax, mean (SD)) was 45.2 ng/mL. The Tmax ([1]; 20 mg, ubrogepant 20 mg alone, read-out: Tmax, median (range)) was 2 h, the AUC(0-inf) ([1]; ubrogepant 20 mg + ketoconazole 400 mg, read-out: AUC0-∞, mean (SD)) was 2070 ng·h/mL and the half-life ([1]; ubrogepant 20 mg + ketoconazole 400 mg, read-out: Apparent terminal t1/2, mean (SD) (converted)) was 354 min. It also gave a Cmax ([1]; ubrogepant 20 mg + ketoconazole 400 mg, read-out: Cmax, mean (SD)) of 240 ng/mL, a Tmax ([1]; ubrogepant 20 mg + ketoconazole 400 mg, read-out: Tmax, median (range)) of 2.5 h and an AUC(0-inf) ([1]; ubrogepant 20 mg with verapamil 240 mg, read-out: AUC0-∞, AM) of 742 ng·h/mL. For the same compound, the half-life ([1]; ubrogepant 20 mg with verapamil 240 mg, read-out: Apparent terminal t1/2, AM (converted)) was 257 min, the Cmax ([1]; ubrogepant 20 mg with verapamil 240 mg, read-out: Cmax, AM) was 125 ng/mL and the Tmax ([1]; ubrogepant 20 mg with verapamil 240 mg, read-out: Tmax) was 2 h. For the same compound, the “Apparent terminal t1/2, mean (SD)” value ([1]; ubrogepant 20 mg + ketoconazole 400 mg) was 6.00 (1.27) h, the “Apparent terminal t1/2, mean (SD)” value ([1]; ubrogepant 20 mg alone) was 2.52 (0.56) h and 2.52 h and the “exposure of ubrogepant on co-administration” value ([1]; with ketoconazole, a strong CYP3A4 inhibitor) was “significant increase in exposure”. The “exposure of ubrogepant on co-administration” value ([1]; with verapamil, a moderate CYP3A4 inhibitor) was “increase in ubrogepant exposure”, the “effect of a high fat meal on extent of exposure (AUC0-t and AUC0-inf)” value ([2]; 1 × 100 mg tablet) was “did not affect the extent of exposure” and the “CL/F, arithmetic mean (CV %)” value ([2]; 1 × 100 mg tablet, fasted) was 77.29 (29.9) L/h. For the same compound, the “Tmax, median (minimum − maximum)” value ([2]; 1 × 100 mg tablet, fasted) was 1.00 (1.00-3.00) h, the “t1/2, mean (CV %)” value ([2]; 1 × 100 mg tablet, fasted) was 4.99 (23.0) h and the “CL/F, arithmetic mean (CV %)” value ([2]; 1 × 100 mg tablet, fed) was 76.55 (24.1) L/h. For the same compound, the “Tmax, median (minimum − maximum)” value ([2]; 1 × 100 mg tablet, fed) was 3.00 (0.50-4.00) h, the “t1/2, mean (CV %)” value ([2]; 1 × 100 mg tablet, fed) was 4.64 (11.1) h and the “maximum exposure (Cmax) lower under fed versus fasted conditions” value ([2]; 1 × 100 mg tablet, high fat meal) was “approximately 22%”. The AUC(0-inf) ([2]; 1 × 100 mg tablet, fasted, read-out: AUC0-inf, geometric mean (geometric CV %)) was 1360 ng·h/mL, the AUC(0-t) ([2]; 1 × 100 mg tablet, fasted, read-out: AUC0-t, geometric mean (geometric CV %)) was 1330 ng·h/mL and the Cmax ([2]; 1 × 100 mg tablet, fasted, read-out: Cmax, geometric mean (geometric CV %)) was 334 ng/mL. It also gave an AUC(0-inf) ([2]; 1 × 100 mg tablet, fasted, read-out: GLSM AUC0-inf) of 1370 ng·h/mL, an AUC(0-t) ([2]; 1 × 100 mg tablet, fasted, read-out: GLSM AUC0-t) of 1340 ng·h/mL and a Cmax ([2]; 1 × 100 mg tablet, fasted, read-out: GLSM Cmax) of 336 ng/mL. It also gave a Tmax ([2]; 1 × 100 mg tablet, fasted, read-out: Tmax, median (minimum − maximum)) of 1 h, a Vd/F ([2]; 1 × 100 mg tablet, fasted) of 536 L and a half-life ([2]; 1 × 100 mg tablet, fasted) of about 300 min. It also gave an AUC(0-inf) ([2]; 1 × 100 mg tablet, fed, read-out: AUC0-inf, geometric mean (geometric CV %)) of 1340 ng·h/mL, an AUC(0-t) ([2]; 1 × 100 mg tablet, fed, read-out: AUC0-t, geometric mean (geometric CV %)) of 1320 ng·h/mL and a Cmax ([2]; 1 × 100 mg tablet, fed, read-out: Cmax, geometric mean (geometric CV %)) of 262 ng/mL. For the same compound, the AUC(0-inf) ([2]; 1 × 100 mg tablet, fed, read-out: GLSM AUC0-inf) was 1350 ng·h/mL, the AUC(0-t) ([2]; 1 × 100 mg tablet, fed, read-out: GLSM AUC0-t) was 1330 ng·h/mL and the Cmax ([2]; 1 × 100 mg tablet, fed, read-out: GLSM Cmax) was 263 ng/mL. It also gave a Tmax ([2]; 1 × 100 mg tablet, fed, read-out: Tmax, median (minimum − maximum)) of 3 h, a Vd/F ([2]; 1 × 100 mg tablet, fed) of 507 L and a half-life ([2]; 1 × 100 mg tablet, fed) of about 300 min. For the same compound, the Tmax ([2]; 1 × 100 mg tablet, read-out: Tmax median difference (fed−fasted)) was 2 h, the “GMR AUC0-inf” value ([2]; fed vs fasted) was 98.89% and the “GMR AUC0-t” value ([2]; fed vs fasted) was 98.88%. The “GMR Cmax” value ([2]; fed vs fasted) was 78.39%, the “substrate of P-gp transporter” value (P-gp) was “substrate” and the “rate of 2-hour pain relief” value (adults with migraine; ACHIEVE ubrogepant 100 mg treated attacks) was 61.4%. The “rate of 2 hour pain freedom” value (adults with migraine; ACHIEVE ubrogepant 100 mg-treated attacks) was 21.2%, the “rate of 2 hour pain freedom” value (adults with migraine; LTE trial, 100 mg, mean across first 3 attacks) was 21.6% and the “rate of 2-hour pain relief” value (adults with migraine; LTE trial, 100 mg, mean across first three attacks) was 68.0%.
